Data published in patent EP0094564A2, “Azolyl-methyl oxiranes, their preparation and use as medicaments and plant protecting agents” (BASF Aktiengesellschaft, priority 1982, dated 1983).
Values after ≈ are worked out from the molar mass of the structure shown.

Each molecule was assayed on Weizenbraunrost (Puccinia recondita) (assay: Versuch 2: activity against wheat brown rust on wheat seedlings). Settings: 0,025; 0,006; 0,0015 %ige Spritzbrühen; sprayed 24 h after inoculation; assessed after 8 days; value given as 'beispielsweise'.
Format: in vivo
Procedure: Blätter von in Töpfen gewachsenen Weizensämlingen der Sorte "Jubilar" wurden mit Sporen des Braunrostes (Puccinia recondita) bestäubt. Danach wurden die Töpfe für 24 Stunden bei 20 bis 22°C in eine Kammer mit hoher Luftfeuchtigkeit (90 bis 95 %) gestellt. Während dieser Zeit keimten die Sporen aus und die Keimschläuche drangen in das Blattgewebe ein. Die infizierten Pflanzen wurden anschließend mit wäßrigen Spritzbrühen, die 80 % Wirkstoff und 20 % Emulgiermittel in der Trockensubstanz enthielten, tropfnaß gespritzt. Nach dem Antrocknen des Spritzbelages wurden die Versuchspflanzen im Gewächshaus bei Temperaturen zwischen 20 und 22°C und 65 bis 70 % relativer Luftfeuchte aufgestellt. Nach 8 Tagen wurde das Ausmaß der Rostpilzentwicklung auf den Blättern ermittelt.

Compound | fungizide Wirkung gegen Weizenbraunrost [%]
Clc1ccc(C2(Cn3cncn3)OC2c2ccc(Br)cc2)cc1 (single isomer, unassigned) [Beispiel 46] | 100
OC(Cn1ccnc1)c1ccc(Cl)cc1Cl (stereo not drawn) [Wirkstoff A, 1-(2,4-Dichlorphenyl)-2-(imidazol-1-yl)-ethan-1-ol, reference compound] | 50
O=C(Cn1cncn1)c1ccc(Cl)cc1Cl [Wirkstoff B, (2,4-Dichlorphenyl)-1,2,4-triazol-1-yl-methylketon, reference compound] | 50

These molecules were tested on Trametes versicolor (assay: Versuch 6: fungal growth on malt extract agar containing active ingredient). Settings: 40 ppm in 5 % malt extract agar; 5 days at 25 °C; growth score.
Format: cell-based
Design: key: 0 = kein Pilzwachstum (Pilzmyzel abgetötet); 1 = geringes Pilzwachstum (bis 1/3 der Agaroberfläche bewachsen); 3 = mittleres Pilzwachstum (bis 2/3 der Agaroberfläche bewachsen); 5 = ungehemmtes Pilzwachstum (gesamte Agaroberfläche bewachsen)
From the text: (§1) Die Wirkstoffe werden in Aceton gelöst, in Mengen von 40 ppm einem verflüssigten 5 %igen Malzextraktagar zugesetzt. Der Agar wird in Petrischalen ausgegossen und nach dem Erstarren werden die fungizidhaltigen Nähragarplatten zentral mit Myzel der holzzerstörenden Pilze Coniophora puteana und Trametes versicolor, des Moderfäule und Stockflecken verursachenden Pilzes Chaetomium globosum sowie mit Sporen des grünen Holzschimmels Trichoderma viride beimpft.
(§2) Nach fünftägiger Bebrütung der Schalen bei 25 °C wird die Entwicklung der Pilzkolonien auf dem Nährboden im Vergleich mit der Kontrolle (ohne Wirkstoff-Zusatz) beurteilt: • 0 = kein Pilzwachstum (Pilzmyzel abgetötet) • 1 = geringes Pilzwachstum (bis 1/3 der Agaroberfläche bewachsen) • 3 = mittleres Pilzwachstum (bis 2/3 der Agaroberfläche bewachsen) • 5 = ungehemmtes Pilzwachstum (gesamte Agaroberfläche bewachsen)

Compound | Wirksamkeit gegen Trametes versicolor
CC1(Cn2cncn2)OC1c1ccc(Cl)cc1Cl (single isomer, unassigned) [Beispiel 23] | 0
Clc1ccc(C2(Cn3cncn3)OC2c2ccc(Br)cc2)cc1 (single isomer, unassigned) [Beispiel 46] | 0
Clc1ccc(C2(Cn3ccnc3)OC2c2ccc(Br)cc2)cc1 (single isomer, unassigned) [Beispiel 48] | 0
Clc1ccc(C2(Cn3ccnc3)OC2c2ccc(Br)cc2)c(Cl)c1 (single isomer, unassigned) [Beispiel 49] | 0

The molecules below were run on Coniophora puteana in the same assay as above. Settings: 40 ppm in 5 % malt extract agar; 5 days at 25 °C; growth score.
Format: cell-based
Design: key: 0 = kein Pilzwachstum (Pilzmyzel abgetötet); 1 = geringes Pilzwachstum (bis 1/3 der Agaroberfläche bewachsen); 3 = mittleres Pilzwachstum (bis 2/3 der Agaroberfläche bewachsen); 5 = ungehemmtes Pilzwachstum (gesamte Agaroberfläche bewachsen)
From the text: as §1, §2

Compound | Wirksamkeit gegen Coniophora puteana
CC1(Cn2cncn2)OC1c1ccc(Cl)cc1Cl (single isomer, unassigned) [Beispiel 23] | 0
Clc1ccc(C2(Cn3cncn3)OC2c2ccc(Br)cc2)cc1 (single isomer, unassigned) [Beispiel 46] | 0
Clc1ccc(C2(Cn3ccnc3)OC2c2ccc(Br)cc2)cc1 (single isomer, unassigned) [Beispiel 48] | 0
Clc1ccc(C2(Cn3ccnc3)OC2c2ccc(Br)cc2)c(Cl)c1 (single isomer, unassigned) [Beispiel 49] | 0

What follows are molecules tested on Trichoderma viride in the same assay as above. Settings: 40 ppm in 5 % malt extract agar; 5 days at 25 °C; growth score.
Format: cell-based
Design: key: 0 = kein Pilzwachstum (Pilzmyzel abgetötet); 1 = geringes Pilzwachstum (bis 1/3 der Agaroberfläche bewachsen); 3 = mittleres Pilzwachstum (bis 2/3 der Agaroberfläche bewachsen); 5 = ungehemmtes Pilzwachstum (gesamte Agaroberfläche bewachsen)
From the text: as §1, §2

Compound | Wirksamkeit gegen Trichoderma viride
CC1(Cn2cncn2)OC1c1ccc(Cl)cc1Cl (single isomer, unassigned) [Beispiel 23] | 0
Clc1ccc(C2(Cn3cncn3)OC2c2ccc(Br)cc2)cc1 (single isomer, unassigned) [Beispiel 46] | 0
Clc1ccc(C2(Cn3ccnc3)OC2c2ccc(Br)cc2)cc1 (single isomer, unassigned) [Beispiel 48] | 0
Clc1ccc(C2(Cn3ccnc3)OC2c2ccc(Br)cc2)c(Cl)c1 (single isomer, unassigned) [Beispiel 49] | 0

Each molecule was assayed on Chaetomium globosum in the same assay as above. Settings: 40 ppm in 5 % malt extract agar; 5 days at 25 °C; growth score.
Format: cell-based
Design: key: 0 = kein Pilzwachstum (Pilzmyzel abgetötet); 1 = geringes Pilzwachstum (bis 1/3 der Agaroberfläche bewachsen); 3 = mittleres Pilzwachstum (bis 2/3 der Agaroberfläche bewachsen); 5 = ungehemmtes Pilzwachstum (gesamte Agaroberfläche bewachsen)
From the text: as §1, §2

Compound | Wirksamkeit gegen Chaetomium globosum
CC1(Cn2cncn2)OC1c1ccc(Cl)cc1Cl (single isomer, unassigned) [Beispiel 23] | 0
Clc1ccc(C2(Cn3cncn3)OC2c2ccc(Br)cc2)cc1 (single isomer, unassigned) [Beispiel 46] | 0
Clc1ccc(C2(Cn3ccnc3)OC2c2ccc(Br)cc2)cc1 (single isomer, unassigned) [Beispiel 48] | 0
Clc1ccc(C2(Cn3ccnc3)OC2c2ccc(Br)cc2)c(Cl)c1 (single isomer, unassigned) [Beispiel 49] | 1

Each molecule was assayed on Trichom. vag. (assay: Minimal inhibitory concentration in vitro (protozoa)). Settings: read-out: Minimale Hemmkonzentration (MHK) Trichom. vag.
Format: cell-based
From the text: (§3) Die Wirkung gegen Dermatophyten, Bakterien und Protozonen kann nach Methoden, wie sie beispielsweise in P. Klein, Bakteriologische Grundlagen der chemotherapeutischen Laboratoriumspraxis, Springer-Verlag Berlin, 1957, beschrieben wird, aufgezeigt werden. Die überraschende Wirkung gegenüber Hefen wurde im Pseudomyzel- und Myzelphasentest mit Candida albicans nachgewiesen (vgl. DE-OS 30 10 093). Es wurde geprüft, welche minimalen Hemmkonzentrationen (MHK-Werte) im Agardilutionstest erreicht werden. In der Tabelle 1 sind die Ergebnisse zusammengefaßt.

MIC [µg/mL] | Compound
> 16 | Clc1ccc(C2(Cn3ccnc3)OC2c2ccccc2)cc1 (single isomer, unassigned) [Beispiel 9]

These molecules were tested on Botrytis cinerea (assay: Versuch 4: activity against Botrytis cinerea on paprika seedlings). Settings: 0,05 %ige Spritzbrühe; sprayed before inoculation; assessed after 5 days; value given as 'beispielsweise'.
Format: in vivo
From the text: Paprikasämlinge der Sorte "Neusiedler Ideal Elite" wurden, nachdem sich 4 bis 5 Blätter gut entwickelt hatten, mit wäßrigen Suspensionen, die 80 % Wirkstoff und 20 % Emulgiermittel in der Trockensubstanz enthielten, tropfnaß gespritzt. Nach dem Antrocknen des Spritzbelages wurden die Pflanzen mit einer Konidienaufschwemmung des Pilzes Botrytis cenerea besprüht und bei 22 bis 24 C in eine Kammer mit hoher Luftfeuchtigkeit gestellt. Nach 5 Tagen hatte sich die Krankheit auf den unbehandelten Kontrollpflanzen so stark entwickelt, daß die entstandenen Blattnekrosen den überwiegenden Teil der Blätter bedeckten.

Compound | fungizide Wirkung gegen Botrytis cinerea an Paprika [%]
Clc1ccc(C2(Cn3cncn3)OC2c2ccc(Br)cc2)cc1 (single isomer, unassigned) [Beispiel 46] | 97
OC(Cn1ccnc1)c1ccc(Cl)cc1Cl (stereo not drawn) [Wirkstoff A, 1-(2,4-Dichlorphenyl)-2-(imidazol-1-yl)-ethan-1-ol, reference compound] | 70
O=C(Cn1cncn1)c1ccc(Cl)cc1Cl [Wirkstoff B, (2,4-Dichlorphenyl)-1,2,4-triazol-1-yl-methylketon, reference compound] | 70

What follows are molecules tested on Aps.fum. 2 (assay: Agar dilution test, minimal inhibitory concentration in vitro). Settings: read-out: Minimale Hemmkonzentration (MHK) Aps.fum. 2.
Format: cell-based
From the text: as §3

MIC [µg/mL] | Compound
16 (≈ 51.5 µM) | Clc1ccc(C2(Cn3ccnc3)OC2c2ccccc2)cc1 (single isomer, unassigned) [Beispiel 9]

The molecules below were run on Microsp. ferrug. 5 in the same assay as above. Settings: read-out: Minimale Hemmkonzentration (MHK) Microsp. ferrug. 5.
Format: cell-based
From the text: as §3

MIC [µg/mL] | Compound
0.25 (≈ 0.804 µM) | Clc1ccc(C2(Cn3ccnc3)OC2c2ccccc2)cc1 (single isomer, unassigned) [Beispiel 9]

What follows are molecules tested on Staph. aur. SG 511 in the same assay as above. Settings: read-out: Minimale Hemmkonzentration (MHK) Staph. aur. SG 511.
Format: cell-based
From the text: as §3

MIC [µg/mL] | Compound
128 (≈ 412 µM) | Clc1ccc(C2(Cn3ccnc3)OC2c2ccccc2)cc1 (single isomer, unassigned) [Beispiel 9]

The molecules below were run on Strept. faec. 8043 in the same assay as above. Settings: read-out: Minimale Hemmkonzentration (MHK) Strept. faec. 8043.
Format: cell-based
From the text: as §3

MIC [µg/mL] | Compound
128 (≈ 412 µM) | Clc1ccc(C2(Cn3ccnc3)OC2c2ccccc2)cc1 (single isomer, unassigned) [Beispiel 9]

The molecules below were run on Mucor pus. 6 in the same assay as above. Settings: read-out: Minimale Hemmkonzentration (MHK) Mucor pus. 6.
Format: cell-based
From the text: as §3

MIC [µg/mL] | Compound
2 (≈ 6.44 µM) | Clc1ccc(C2(Cn3ccnc3)OC2c2ccccc2)cc1 (single isomer, unassigned) [Beispiel 9]

What follows are molecules tested on Abs. corym. 1 in the same assay as above. Settings: read-out: Minimale Hemmkonzentration (MHK) Abs. corym. 1.
Format: cell-based
From the text: as §3

MIC [µg/mL] | Compound
4 (≈ 12.9 µM) | Clc1ccc(C2(Cn3ccnc3)OC2c2ccccc2)cc1 (single isomer, unassigned) [Beispiel 9]

What follows are molecules tested on Trichoph. ment. 21 in the same assay as above. Settings: read-out: Minimale Hemmkonzentration (MHK) Trichoph. ment. 21.
Format: cell-based
From the text: as §3

MIC [µg/mL] | Compound
1 (≈ 3.22 µM) | Clc1ccc(C2(Cn3ccnc3)OC2c2ccccc2)cc1 (single isomer, unassigned) [Beispiel 9]

Each molecule was assayed on Epid. flocc. 157 in the same assay as above. Settings: read-out: Minimale Hemmkonzentration (MHK) Epid. flocc. 157.
Format: cell-based
From the text: as §3

MIC [µg/mL] | Compound
1 (≈ 3.22 µM) | Clc1ccc(C2(Cn3ccnc3)OC2c2ccccc2)cc1 (single isomer, unassigned) [Beispiel 9]

What follows are molecules tested on E.coli muta-flor in the same assay as above. Settings: Escherichia coli, read-out: Minimale Hemmkonzentration (MHK) E.coli muta-flor.
Format: cell-based
From the text: as §3

MIC [µg/mL] | Compound
> 128 | Clc1ccc(C2(Cn3ccnc3)OC2c2ccccc2)cc1 (single isomer, unassigned) [Beispiel 9]

The molecules below were run on Cand.alb. H (assay: Candida albicans pseudomycelium/mycelium phase test, MIC). Settings: in vitro, column H, read-out: Minimale Hemmkonzentration (MHK) Cand.alb. H.
Format: cell-based
From the text: as §3

MIC [µg/mL] | Compound
> 1 | Clc1ccc(C2(Cn3ccnc3)OC2c2ccccc2)cc1 (single isomer, unassigned) [Beispiel 9]

These molecules were tested on Weizenmehltau (Erysiphe graminis var. tritici) (assay: Versuch 1: activity against wheat powdery mildew on wheat seedlings). Settings: 0,025; 0,006; 0,0015 %ige Spritzbrühen; sprayed 24 h before inoculation; assessed after 7 days; value given as 'beispielsweise'.
Format: in vivo
Procedure: Blätter von in Töpfen gewachsenen Weizenkeimlingen der Sorte "Jubilar" wurden mit wäßriger Spritzbrühe, die 80 % (Gew.%) Wirkstoff und 20 % Emulgiermittel in der Trockensubstanz enthielt, besprüht und 24 Stunden nach dem Antrocknen des Spritzbelages mit Oidien (Sporen) des Weizenmehltaus (Erysiphe graminis var. tritici) bestäubt. Die Versuchspflanzen wurden anschließend im Gewächshaus bei Temperaturen zwischen 20 und 22 °C und 75 bis 80 % relativer Luftfeuchtigkeit aufgestellt. Nach 7 Tagen wurde das Ausmaß der Mehltauentwicklung ermittelt.

Compound | fungizide Wirkung gegen Weizenmehltau [%]
Clc1ccc(C2(Cn3cncn3)OC2c2ccc(Br)cc2)cc1 (single isomer, unassigned) [Beispiel 46] | 100
OC(Cn1ccnc1)c1ccc(Cl)cc1Cl (stereo not drawn) [Wirkstoff A, 1-(2,4-Dichlorphenyl)-2-(imidazol-1-yl)-ethan-1-ol, reference compound] | 90
O=C(Cn1cncn1)c1ccc(Cl)cc1Cl [Wirkstoff B, (2,4-Dichlorphenyl)-1,2,4-triazol-1-yl-methylketon, reference compound] | 90
